Patent US4103011A, “Novel penicillin compounds and process for preparation thereof” (priority 1976, dated 1978)
≈ marks a conversion by molar mass, not a printed value. Structures can show the parent of a compound that is named as a salt. Where two headings read alike, the source gives them in different places.

Assays:
[1] = tested on: 20 strains of bacteria; experiment: In vitro antibacterial activity, overall conclusions; type: cell-based; details: in vitro, Table I
Excerpt: (§1) In vitro antibacterial activity against 20 strains of bacteria

[2] = tested on: Enterobacter cloacae P-2540; experiment: In vitro antibacterial activity (MIC); type: cell-based; details: P2540; Enterobacter cloacae P-2540; read-out: minimum inhibitory concentration (MIC)
Excerpt: as §1
(§2) The numerals in the table show minimum inhibitory concentrations (MIC)

[3] = tested on: Staphylococcus aureus No. 50774; experiment: In vitro antibacterial activity (MIC); type: cell-based
Excerpt: as §1, §2

[4] = tested on: Streptococcus faecalis P-2473; experiment: In vitro antibacterial activity (MIC); type: cell-based; details: Enterococcus faecalis
Excerpt: as §1, §2

[5] = tested on: Pseudomonas aeruginosa Tsuchijima; experiment: In vitro antibacterial activity (MIC); type: cell-based; details: read-out: minimum inhibitory concentration (MIC)
Excerpt: as §1, §2

[6] = tested on: Serratia mercescens IFO 3736; experiment: In vitro antibacterial activity (MIC); type: cell-based
Excerpt: as §1, §2

[7] = tested on: Escherichia coli NIHJ JC-2; experiment: In vitro antibacterial activity (MIC); type: cell-based
Excerpt: as §1, §2

[8] = tested on: Pseudomonas aeruginosa No.12; experiment: In vitro antibacterial activity (MIC); type: cell-based
Excerpt: as §1, §2

[9] = tested on: Proteus rettgeri P-2503; experiment: In vitro antibacterial activity (MIC); type: cell-based; details: Providencia rettgeri
Excerpt: as §1, §2

[10] = tested on: Escherichia coli P-5101; experiment: In vitro antibacterial activity (MIC); type: cell-based
Excerpt: as §1, §2

[11] = tested on: Staphylococcus aureus 209P JC-1; experiment: In vitro antibacterial activity (MIC); type: cell-based; details: read-out: minimum inhibitory concentration (MIC)
Excerpt: as §1, §2

[12] = tested on: Shigella flexneri 2a; experiment: In vitro antibacterial activity (MIC); type: cell-based; details: read-out: minimum inhibitory concentration (MIC)
Excerpt: as §1, §2

[13] = tested on: Escherichia coli P-140a; experiment: In vitro antibacterial activity (MIC); type: cell-based
Excerpt: as §1, §2

[14] = tested on: Salmonella enteritidis No. 1891; experiment: In vitro antibacterial activity (MIC); type: cell-based; details: Salmonella enterica; Salmonella enteritidis No. 1891; read-out: minimum inhibitory concentration (MIC)
Excerpt: as §1, §2

[15] = tested on: Shigella flexneri 4a P-330; experiment: In vitro antibacterial activity (MIC); type: cell-based; details: 4AP330, read-out: minimum inhibitory concentration (MIC)
Excerpt: as §1, §2

[16] = tested on: Proteus morganii Kono; experiment: In vitro antibacterial activity (MIC); type: cell-based; details: Morganella morganii, read-out: minimum inhibitory concentration (MIC)
Excerpt: as §1, §2

[17] = tested on: Salmonella typhimurium S-9; experiment: In vitro antibacterial activity (MIC); type: cell-based; details: Salmonella enterica; Salmonella typhimurium S-9; read-out: minimum inhibitory concentration (MIC)
Excerpt: as §1, §2

[18] = tested on: Klebsiella pneumoniae No. 13; experiment: In vitro antibacterial activity (MIC); type: cell-based
Excerpt: as §1, §2

[19] = tested on: Proteus mirabilis P-2381; experiment: In vitro antibacterial activity (MIC); type: cell-based
Excerpt: as §1, §2

[20] = tested on: Corynebacterium pyogenes C-21; experiment: In vitro antibacterial activity (MIC); type: cell-based; details: Rhodococcus (subgen. Prescottella) equi, C21; Corynebacterium pyogenes C-21; read-out: minimum inhibitory concentration (MIC)
Excerpt: as §1, §2

[21] = tested on: Streptococcus pyogenes 65A; experiment: In vitro antibacterial activity (MIC); type: cell-based; details: read-out: minimum inhibitory concentration (MIC)
Excerpt: as §1, §2

[22] = in vivo; details: mouse
[23] = tested on: Pseudomonas aeruginosa No. 12; experiment: In vivo efficacy against systemic infection; parameters: species or system male mice (ddY); details: NO.12, in Mus musculus, sc, twice, about 5 minutes and 6 hours after infection, read-out: ED50 (median effective dose)
Protocol: (§3) The contents in the vials (No. A and No. C) prepared in Example 17 were each dissolved in deionized water, and injections having various concentrations were prepared.
(§4) Compounds A, B, F, G, H and M were dissolved in deionized water.
(§5) Mice: male mice (ddY) weighting about 20g
Pseudomonas aeruginosa No. 12;
(§6) Intraperitoneal infection with 50 to
(§7) of a bacterial suspension in tryptosoy
(§8) twice, about 5 minutes and 6 hours after
Pseudomonas aeruginosa No. 12
(§9) calculated in accordance with the Behrens-Kaerber method [Arch. Exp. Path

[24] = tested on: Escherichia coli P-5101; experiment: In vivo efficacy against systemic infection; parameters: species or system male mice (ddY); details: P5101, in Mus musculus, 168 h, sc, twice, about 5 minutes and 6 hours after infection, read-out: ED50 (median effective dose)
Protocol: as §3, §4, §5, §6, §7, §8, §9

[25] = tested on: Staphylococcus aureus No. 50774; experiment: In vivo efficacy against systemic infection; parameters: species or system male mice (ddY); details: NO.50774, in Mus musculus, 336 h, sc, twice, about 5 minutes and 6 hours after infection, read-out: ED50 (median effective dose)
Protocol: as §3
Compounds A, B, F, G, H and M were dissolved in deionized water. Compounds C, D, E and J were dissolved in an aqueous solution of sodium carbonate (pH 8-9) to prepare injections of various concentrations.
Each of the injections was administered to mice under the conditions described below, and the median effective doses (ED50) obtained are shown in Table II.
as §5
Staphylococcus aureus No. 50774;
Intravenous infection with 50 to 100
LD50 (about 5 × 10^8cells/mouse) of a
bacterial suspension in saline.
as §8
Staphylococcus aureus No. 50774 14 days
The numerals in the table show ED50 (mg/kg). ED50 values were
as §9

[26] = Staphylococcus aureus No. 50774, read-out: minimum inhibitory concentration (MIC)
[27] = P2473, Streptococcus faecalis P-2473, read-out: minimum inhibitory concentration (MIC)
[28] = Pseudomonas aeruginosa Tsuchijima
[29] = IFO3736, Serratia mercescens IFO 3736, read-out: minimum inhibitory concentration (MIC)
[30] = NIHJJC2, Escherichia coli NIHJ JC-2, read-out: minimum inhibitory concentration (MIC)
[31] = Pseudomonas aeruginosa No.12, read-out: minimum inhibitory concentration (MIC)
[32] = P2503, Proteus rettgeri P-2503, read-out: minimum inhibitory concentration (MIC)
[33] = P5101, Escherichia coli P-5101, read-out: minimum inhibitory concentration (MIC)
[34] = Staphylococcus aureus 209P JC-1
[35] = Klebsiella pneumoniae No. 13, read-out: minimum inhibitory concentration (MIC)
[36] = P2381, Proteus mirabilis P-2381, read-out: minimum inhibitory concentration (MIC)
[37] = P2473, read-out: minimum inhibitory concentration (MIC)
[38] = Serratia, IFO3736, read-out: minimum inhibitory concentration (MIC)
[39] = Escherichia coli, NIHJJC2, read-out: minimum inhibitory concentration (MIC)
[40] = Pseudomonas aeruginosa, NO.12, read-out: minimum inhibitory concentration (MIC)
[41] = P2503, read-out: minimum inhibitory concentration (MIC)
[42] = Klebsiella pneumoniae, NO.13, read-out: minimum inhibitory concentration (MIC)
[43] = Proteus mirabilis, P2381, read-out: minimum inhibitory concentration (MIC)

CC(=O)N1CCN(c2ncc3c(=O)c(C(=O)O)c[nH]c3n2)CC1 [Compound L, 5,8-Dihydro-2-(4-acetyl-1-piperazinyl)-5-oxopyrido[2,3-d]pyrimidine-6-carboxylic acid]
antibacterial activity (in words) [1]: do not substantially show antibacterial activity | MIC [2]: > 200 µg/mL | MIC [3, 26]: > 50 µg/mL | MIC [4, 27]: > 50 µg/mL | MIC [5, 28]: > 200 µg/mL | MIC [6, 29]: > 100 µg/mL | MIC [7, 30]: > 100 µg/mL | MIC [8, 31]: > 200 µg/mL | MIC [9, 32]: > 100 µg/mL | MIC [10, 33]: > 100 µg/mL | MIC [11, 34]: > 50 µg/mL | MIC [12]: > 100 µg/mL | minimum inhibitory concentration (MIC) [13]: > 200 µg/mL | MIC [14]: > 50 µg/mL | MIC [15]: > 100 µg/mL | MIC ([16]; Proteus morganii Kono): > 200 µg/mL | MIC [17]: > 50 µg/mL | MIC [18, 35]: > 200 µg/mL | MIC [19, 36]: > 50 µg/mL | MIC [20]: > 50 µg/mL | MIC ([21]; Streptococcus pyogenes 65A): > 100 µg/mL

O=CN1CCN(c2ncc3c(=O)c(C(=O)O)c[nH]c3n2)CC1 [Compound K, 5,8-Dihydro-2-(4-formyl-1-piperazinyl)-5-oxopyrido[2,3-d]pyrimidine-6-carboxylic acid]
antibacterial activity (in words) [1]: do not substantially show antibacterial activity | MIC [2]: > 200 µg/mL | MIC ([3]; Staphylococcus aureus, NO.50774, read-out: minimum inhibitory concentration (MIC)): > 50 µg/mL | MIC [4, 27]: > 50 µg/mL | MIC ([5]; Pseudomonas aeruginosa): > 200 µg/mL | MIC [6, 29]: > 100 µg/mL | MIC [7, 30]: > 100 µg/mL | MIC [8, 31]: > 200 µg/mL | MIC [9, 32]: > 100 µg/mL | MIC [10, 33]: > 100 µg/mL | MIC [11, 34]: > 50 µg/mL | MIC [12]: > 100 µg/mL | minimum inhibitory concentration (MIC) [13]: > 200 µg/mL | MIC [14]: > 50 µg/mL | MIC [15]: > 100 µg/mL | MIC ([16]; Proteus morganii Kono): > 200 µg/mL | MIC [17]: > 50 µg/mL | MIC [18, 35]: > 200 µg/mL | MIC [19, 36]: > 50 µg/mL | MIC [20]: > 50 µg/mL | MIC ([21]; Streptococcus pyogenes 65A): > 100 µg/mL

CN(C)c1ncc2c(=O)c(C(=O)N[C@@H](C(=O)N[C@@H]3C(=O)N4[C@@H]3SC(C)(C)[C@@H]4C(=O)O)c3ccc(O)cc3)c[nH]c2n1 [Compound E, D-α-(5,8-Dihydro-2-dimethylamino-5-oxopyrido[2,3-d]pyrimidine-6-carboxamido)-p-hydroxybenzylpenicillin]
LD50 at 168 h ([22]; sc): 1070 mg/kg | selectivity ratio ([22]; sc): 33 | ED50 [23]: 32.4 mg/kg | MIC [2]: 12.5 µg/mL (≈ 21.5 µM) | MIC [3, 26]: 0.78 µg/mL (≈ 1.34 µM) | MIC [4, 37]: 3.13 µg/mL (≈ 5.38 µM) | MIC [5, 28]: 1.56 µg/mL (≈ 2.68 µM) | MIC [6, 38]: 6.25 µg/mL (≈ 10.7 µM) | MIC [7, 39]: 6.25 µg/mL (≈ 10.7 µM) | MIC [8, 40]: 3.13 µg/mL (≈ 5.38 µM) | MIC [9, 41]: 6.25 µg/mL (≈ 10.7 µM) | MIC [10, 33]: 1.56 µg/mL (≈ 2.68 µM) | MIC [11, 34]: 0.78 µg/mL (≈ 1.34 µM) | minimum inhibitory concentration (MIC) [13]: 25 µg/mL (≈ 43 µM) | MIC [14]: 0.78 µg/mL (≈ 1.34 µM) | MIC [15]: 6.25 µg/mL (≈ 10.7 µM) | MIC [16]: 6.25 µg/mL (≈ 10.7 µM) | MIC [17]: 1.56 µg/mL (≈ 2.68 µM) | MIC [18, 42]: 12.5 µg/mL (≈ 21.5 µM) | MIC [19, 43]: 3.13 µg/mL (≈ 5.38 µM) | MIC [20]: 0.78 µg/mL (≈ 1.34 µM) | MIC ([21]; Streptococcus pyogenes 65A): 0.025 µg/mL (≈ 0.043 µM) | ED50 [24]: 11 mg/kg | ED50 [25]: ~10 mg/kg

CC1(C)S[C@@H]2[C@H](NC(=O)[C@H](NC(=O)c3c[nH]c4nc(N5CCN(C=O)CC5)ncc4c3=O)c3ccccc3)C(=O)N2[C@H]1C(=O)O [Compound B, D-α-[5,8-Dihydro-2-(4-formyl-1-piperazinyl)-5-oxopyrido[2,3-d]pyrimidine-6-carboxamido]-benzylpenicillin sodium salt]
LD50 at 168 h ([22]; iv): 2830 mg/kg | LD50 at 168 h ([22]; sc): < 4000 mg/kg | ED50 [23]: 17.7 mg/kg | MIC [2]: 12.5 µg/mL | MIC [3, 26]: 0.78 µg/mL | MIC [4, 37]: 6.25 µg/mL | MIC [5, 28]: 1.56 µg/mL | MIC [6, 38]: 12.5 µg/mL | MIC [7, 39]: 6.25 µg/mL | MIC [8, 40]: 6.25 µg/mL | MIC [9, 41]: 6.25 µg/mL | MIC ([10]; Escherichia coli, P5101, read-out: minimum inhibitory concentration (MIC)): 3.13 µg/mL | MIC ([11]; Staphylococcus aureus, 209P): 0.78 µg/mL | MIC [12]: 3.13 µg/mL | minimum inhibitory concentration (MIC) [13]: 12.5 µg/mL | MIC [14]: 0.78 µg/mL | MIC [15]: 6.25 µg/mL | MIC [16]: 3.13 µg/mL | MIC [17]: 1.56 µg/mL | MIC [18, 42]: 6.25 µg/mL | MIC [19, 43]: 3.13 µg/mL | MIC [20]: 1.56 µg/mL | MIC ([21]; Streptococcus pyogenes, 65A): < 0.1 µg/mL | ED50 [24]: 21 mg/kg | ED50 [25]: 3.4 mg/kg
